The data set is described as follows: Solubility of FDKP as a function of pH. The data set is classed as physicochemical. From the text:
These properties allow FDKP to crystallize under acidic conditions and the crystals self-assemble to form particles. The particles dissolve readily under physiological conditions where the pH is neutral. As noted, microparticles having a diameter of between about 0.5 and about 10 microns can reach the lungs, successfully passing most of the natural barriers. Particles in this size range can be readily prepared from FDKP.

1 compound from US9192675B2, “Dry powder inhaler and system for drug delivery” (MannKind Corporation, priority 2008, dated 2015) can be followed below.

Each structure is given as a SMILES string.

For the compound `O=C(O)/C=C/C(=O)NCCCCC1NC(=O)C(CCCCNC(=O)/C=C/C(=O)O)NC1=O` (centres unmarked) [FDKP, bis-3,6-(N-fumaryl-4-aminobutyl)-2,5-diketopiperazine], the solubility entry runs as follows: (in acid) “low solubility in acid”; (neutral or basic pH) “readily soluble at neutral or basic pH”.
